Measured values published in patent US5591743A, “3,5-dioxo-(2H,4H)-1,2,4-triazine derivatives as 5HT1A ligands” (Pierre Fabre Medicament, priority 1993, dated 1997).
Read-outs that look alike come from different tables or passages of the source.

Key:
[1] = biological target: T1, serotoninergic receptors of type 5-HT1A (Rattus norvegicus, UniProt P19327); assay: 5-HT syndrome (flat body posture, lower-lip retraction, fore-paw treading); type: in vivo; details: ip, male Sprague-Dawley rat, i.p.
T1 construct: carried out on the male rat (Sprague-Dawley); from tissue; host or cells: whole living male Sprague-Dawley rat (in vivo test)
T1 sequence (P19327 1-422): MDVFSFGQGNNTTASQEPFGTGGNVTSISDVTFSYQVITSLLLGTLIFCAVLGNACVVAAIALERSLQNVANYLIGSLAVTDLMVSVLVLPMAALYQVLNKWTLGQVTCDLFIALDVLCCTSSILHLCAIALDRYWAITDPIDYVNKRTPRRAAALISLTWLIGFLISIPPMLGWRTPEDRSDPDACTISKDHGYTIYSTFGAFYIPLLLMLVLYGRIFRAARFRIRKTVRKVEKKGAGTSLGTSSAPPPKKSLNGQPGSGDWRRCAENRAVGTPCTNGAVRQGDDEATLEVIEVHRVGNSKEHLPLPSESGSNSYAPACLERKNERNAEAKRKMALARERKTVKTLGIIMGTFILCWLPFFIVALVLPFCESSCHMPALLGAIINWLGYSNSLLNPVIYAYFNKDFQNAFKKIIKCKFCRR
Procedure: The experiments of the evaluation of the 5-HT syndrome are carried out on the male rat (Sprague-Dawley) by the method described by F. C. Colpaert et al. (Drug. Dev. Res. 26:21-48, 1992).

[2] = biological target: T2, 5-HT1A receptor (Rattus norvegicus, UniProt P19327); assay: Affinity for the receptor 5-HT1A: displacement of [3H]8-OH-DPAT in rat cerebral cortex; type: binding; details: [3H]8-OH-DPAT 0.2 nM, 23° C., 30 minutes, average of 3 to 5 experiments, read-out: pKi (affinity for the receptor 5-HT1A) (converted)
T2 construct: The brain is dissected and the cortex is homogenized in 20 volumes of Tris-HCl buffer; from tissue; host or cells: rat cerebral cortex homogenate
T2 sequence (P19327 1-422): T1 sequence (P19327 1-422)
Procedure: Thus, they were the object of a study relating to their affinity for serotoninergic receptors such as 5-HT1A.
The study of the bonding to the receptor 5-HT1A is carried out in the manner described by Sleight and Peroutka (Naunyn-Schmiedebergs Arch. Pharmacol. 343:106-116, 1991). For these experiments, rat cerebral cortices are used. The brain is dissected and the cortex is homogenized in 20 volumes of Tris-HCl buffer (50 mM, pH 7.4 at 25° C.) kept at 4° C. The homogenate is centrifuged at 39000 g for 10 minutes, the final product is suspended in the same volume of buffer and centrifuged again. After being again placed in suspension under the same conditions, the homogenate is incubated for 10 minutes at 37° C. and then centrifuged again. The final product is suspended in 80 volumes of reaction buffer containing pargyline (10^- 5M), CaCl2 (4 mM) and ascorbic acid (0.1%) in Tris-HCl (50 mM, pH 7.4 at 25° C.). The final concentration of tissue in the incubation medium is 10 mg/tube.
In the saturation experiments, the reaction tubes contain 0.1 ml of different concentrations of [^3 H]8--OH--DPAT (between 0.06 and 8 nM), 0.1 ml of reaction buffer 5-HT (10^-5 M, in order to determine the non-specific bond) and 0.8 ml of tissue.
The displacement experiments are carried out in the manner described by Sleight and Peroutka (Naunyn-Schmiedebergs Arch. Pharmacol. 343:106-116, 1991). All the dilutions of products to be studied are prepared in the reaction buffer. The reaction tubes contain 0.1 ml of [^3 H]8-OH-DPAT (0.2 nM), 0.1 ml of product to be tested 6-7 concentrations (successive dilutions to 1/10) and 0.8 ml of tissue. […] The radioactivity collected on the filter is analyzed in liquid scintillation by adding 4 ml of scintillating liquid (Emulsifier Safe, Packard). All the experiments are carried out in triplicate and repeated at least 3 times.
The dissociation constant (KD) and the maximum number of bond sites (Bmax) for the radioligand are estimated on the basis of the saturation experiments using the non-linear regression program EBDA/LIGAND (Biosoft) (Munson and Rodbard: Anal. Biochem. 107:220-239, 1980). The affinity constants (Ki) of the reference products are estimated on the basis of the displacement experiments using the EBDA/LIGAND non-linear regression program. […] The data of the displacement experiments are analyzed with the one-site and two-site models respectively and the calculated F makes it possible to determine whether the two-site model is more representative of the data obtained than the one-site model. The values of pKi are given in the form of the average ±SEM of 3 to 5 experiments.

[3] = FBP, read-out: ED50 FBP (flat body posture)
[4] = FPT, read-out: ED50 FPT (reciprocal fore-paw treading)
[5] = LLR, read-out: ED50 LLR (lower-lip retraction)

| ED50 [1, 3] [mg/kg] | ED50 [1, 4] [mg/kg] | ED50 [1, 5] [mg/kg] | Ki [2] [nM] | Compound |
| --- | --- | --- | --- | --- |
|  |  |  | 0.617 | COc1ccccc1N1CCN(CCCCNc2nn(C)c(=O)n(C)c2=O)CC1 [Compound 3, 2,4-dimethyl-3,5-dioxo-(2H,4H)-6-(4-(4-(2-methoxyphenyl)piperazino)butylamino)-1,2,4-triazine] |
|  |  |  | 16.2 | Cn1nc(NCCCN2CCN(c3cccc(C(F)(F)F)c3)CC2)c(=O)n(C)c1=O [Compound 6, 2,4-dimethyl-3,5-dioxo-(2H,4H)-6-(3-(4-(3-trifluoromethylphenyl)piperazino)propylamino)-1,2,4-triazine] |
|  |  |  | 2.69 | Cn1nc(NCCCCNCC2COc3ccccc3O2)c(=O)n(C)c1=O (stereo not shown) [Compound 9, 2,4-dimethyl-3,5-dioxo-(2H,4H)-6-(4-(1,4-benzodioxan-2 ylmethylamino)butylamino)-1,2,4-triazine] |
|  |  |  | 3.8 | Cn1nc(NCCCNCC2COc3ccccc3O2)c(=O)n(C)c1=O (stereo not shown) [Compound 10, 2,4-dimethyl-3,5-dioxo-(2H, 4H)-6-(3-(1,4-benzodioxan-2 ylmethylamino)propylamino)-1,2,4-triazine] |
|  |  |  | 12.6 | CCCCn1c(=O)[nH]nc(NCCCCN2CCN(c3cccc(C(F)(F)F)c3)CC2)c1=O [Compound 11, 4-butyl-3,5-dioxo-(2H, 4H)-6-(4-(4-(3-trifluoromethylphenyl)piperazino)butylamino)-1,2,4-triazine] |

Continued, molecule first:

| Compound | ED50 [1, 3] [mg/kg] | ED50 [1, 4] [mg/kg] | ED50 [1, 5] [mg/kg] | Ki [2] [nM] |
| --- | --- | --- | --- | --- |
| O=C1CC2(CCCC2)CC(=O)N1CCCCN1CCN(c2ncccn2)CC1 [Buspirone, reference compound] | 5 | > 40 | 1.25 |  |
| Cn1nc(NCCCCN2CCN(c3cccc(C(F)(F)F)c3)CC2)c(=O)n(C)c1=O [Compound 1, 2,4-dimethyl-3,5-dioxo-(2H, 4H)-6-(4-(4-(3-trifluoromethylphenyl)piperazino)butylamino)-1,2,4-triazine] | 0.31 | 0.31 | 0.31 | 0.316 |
| Cn1nc(NCCCCN2CCN(c3cccc(Cl)c3)CC2)c(=O)n(C)c1=O [Compound 2, 2,4-dimethyl-3,5-dioxo-(2H,4H)-6-(4(4-(3-chlorophenyl)piperazino)butylamino)-1,2,4-triazine] | 0.31 | 40 | 0.31 | 0.398 |
